The values that follow come from article PMC11728977, “Crystallographic, kinetic, and calorimetric investigation of PKA interactions with L-type calcium channels and Rad GTPase” (The Journal of Biological Chemistry, 2024).

No end group written: not given here.

Data set [1] concerns the target PKAc (catalytic subunit of PKA, PKAcα 16-351) (Mus musculus, UniProt P05132). Put plainly: ADP-Glo kinase assay, Michaelis-Menten kinetics of PKAc phosphorylation of substrates. To be noted: for kcat / Km / kcat/Km: ADP-Glo, 3 nM PKAc, 1 mM ATP, 5 mM Mg2+; for kcat / Km: substrate 0-256 μM, room temperature 30 min; for kcat: 50 mM Hepes pH 7.4, 150 mM KCl, mean ± SD of n = 3 or 4 biological replicates, less reliable for poor substrates; for Km: Michaelis-Menten fit; for Km / kcat/Km: mean ± SD of n = 3 or 4; for reduction in kcat/Km versus WT Ser1981 peptide: from kcat/Km of Table 2. (In general: ADP-Glo first removes unused ATP, then detects ADP through luciferase.)
Description: We used enzyme kinetics to investigate the activity of catalytic subunit of PKA (PKAc) toward the three target sites within the C terminus of CaV1.2. We performed discontinuous kinase assays using an ADP-GloMax Assay kit.
Kinase assays were conducted using an ADP-Glo Kinase Assay Kit (Promega). […] Therefore, we performed assays with excess ATP (1 mM) and Mg^2+ (5 mM) to saturate PKAc prior to substrate binding. Reagents were prepared as described in the kit, aliquoted, and frozen at −20 °C prior to use. Reactions were conducted in 384-well solid white polystyrene microplates (Corning). Peptide substrates and EFPreIQ were dissolved and/or diluted to 800 μM using 50 mM Hepes (pH 7.4), 150 mM KCl, 5 mM MgCl2, and 4 mM TCEP. […] For peptides lacking tryptophan, the amount of volume needed to achieve a concentration of 800 μM was calculated prior to dissolving. The peptides/substrate was 2-fold serially diluted using the same buffer to create 11 reactions per curve ranging from 0 to 256 μM. ATP was added to each reaction to achieve a final concentration of 1 mM. Reactions were initiated by the addition of thawed PKAc at a final concentration of 3 nM at a final well volume of 20 μl. After allowing reactions to occur at room temperature for 30 min, 3 × 5 ml from each reaction in a curve was taken and mixed with 5 ml ADP-Glo Reagent for a total of three technical replicates per biological replicate. After 40 min, 10 ml of kinase detection reagent was added to each technical replicate and, after waiting 60 min, relative luminescence unit were measured using a VICTOR X4 Multilabel Plate Reader (PerkinElmer).
The relative luminescence unit values were converted to specific activity values via interpolation of a standard curve that was created in accordance with the manufacturer’s protocol. The three technical replicates were averaged to calculate a biological replicate value and plotted against peptide concentration using GraphPad 9 (Prism) software (https://www.graphpad.com/updates/prism-900-release-notes). Technical replicate values resulting from experimental error were removed from the dataset and subsequent averaging. […] The Michaelis–Menten kinetics fitting function was used to generate a nonlinear regression to calculate both a Km constant and Vmax value for each biological replicate curve. These Km constant and Vmax values were averaged and SDs are reported. Figures displaying data points and Michaelis–Menten curves depict the average specific activity values calculated from all biological replicates in the three or four experiments (n = 3 or n = 4) per peptide (n = 4 for Ser1981 and Ser272 peptides, n = 3 for all others).

The target of a further data set is T1, PKAc:AMP-PNP (Mus musculus, UniProt P05132).
T1 construct: 6xHis (N, cleaved yes); made in house; host or cells: Escherichia coli Rosetta (DE3)pLysS
As to the kind of experiment: Isothermal titration calorimetry of substrates binding to PKAc:AMP-PNP. How it is done: As an independent means to assess which substrate peptides are preferred by PKAc, we used ITC to determine the inherent affinities for the various peptides. ITC also provides the enthalpy and entropy changes upon binding and can thus help provide a rationale for different affinities. The ITC experiments were performed using excess Mg^2+ (5 mM) and 0.5 mM adenylyl-imidodiphosphate (AMP)-PNP (a nonhydrolyzable ATP analog) (Fig. 2).
ITC experiments were conducted using a MicroCal iTC200 (GE Healthcare, now Malvern) instrument. The ITC/assay buffer was used to dissolve peptides to a concentration of 1.25 to 4.3 mM. Substrate concentrations were optimized and chosen based on how much was needed to achieve sufficient signal to noise ratio. Rad Ser25 peptide contained a tryptophan residue, which allowed us to determine its concentration via 280 nm absorbance readings using an extinction coefficient of 5500 M^−1 cm^−1. For peptides lacking a tryptophan or tyrosine residue (Ser1981 WT and mutant peptides, Ser1718 peptide, Ser272 peptide, and Ser300 peptide), the amount of volume needed to achieve the desired concentration was calculated prior to diluting. Peptides were received as powder in 1 mg aliquots and using molecular weights of the peptide, the number of moles in each aliquot was determined. The number of moles was used to determine how much volume was required to achieve the desired concentration. AMP-PNP (Millipore Sigma) was dissolved in ITC/Assay buffer to a concentration of 100 mM, aliquoted in 20 μl volumes, and stored at −70 °C. Prior to each run, both titrant and titrand solutions were supplemented with AMP-PNP to a final concentration of 500 μM. The titration experiments were conducted at 4 °C with a stirring speed of 500 RPM. Each titration experiment was comprised of 20 injections with 230 s in between each injection. Each injection totalled 2.0 μl over 4 s except the first injection being 0.4 μl over 0.8 s. Background runs of peptide/substrate into ITC/assay buffer were conducted to generate a linear regression using the isotherm to subtract background heats from experimental runs. Peptides displaying large background heats were dialyzed in ITC/assay buffer for 60 min to remove contaminants remaining from peptide synthesis. The peptide into PKAc runs (experimental runs) utilized the same settings. The data was processed using Origin (Version 7.0, OriginLab) software (https://www.originlab.com/origin).

Where [2] appears, read: 4 °C, 0.5 mM AMP-PNP, 5 mM MgCl2.
The mark [3] stands for this setting: ITC, 4 °C, 0.5 mM AMP-PNP, 5 mM MgCl2, mean ± SD, n = 3.

As for “SNADYLTRDWSILG… [EFPreIQ (S1535), recombinant human CaV1.3 residues 1468–1598 (EF-hand and PreIQ domain) mimicking the CaV1.2 Ser1535 site]”, in data set [1], the turnover number (kcat) (as a rule, the number of substrate molecules converted per active site and unit of time at saturation) was determined as 1.3 ± 0.2 s⁻¹. The “binding to PKAc detected by ITC” value at PKAc:AMP-PNP (setting [2]) was “could not detect any heat signals indicative of binding”.

On to “WGPAPPLHRRSMP [Rad S38 peptide, Rad-derived peptide, residues 28–40 containing Ser38]”, for which the kcat turned out to be 2 ± 1.9 s⁻¹ in data set [1] and 2.0 ± 1.9 s⁻¹ in data set [1] (listed as Ser38). Moreover, at PKAc:AMP-PNP (setting [2]), the “binding to PKAc detected by ITC” value is listed as “not”.

Consider LRRASLG [Kemptide, reference compound], for which, in data set [1], the catalytic constant (kcat) was 19.0 ± 1.5 s⁻¹; the Km – broadly, the substrate concentration at which the rate is half of its maximum – came to 42.6 ± 2.4 µM; the catalytic efficiency (kcat/Km) – broadly, the turnover number divided by the Michaelis constant – came to 470000 ± 50000 M⁻¹ s⁻¹.

For the substance “RGFLRSARLGRRASFHL [S1975R peptide, CaV1.2 S1981 peptide mutant S1975R]”, in data set [1], the turnover number (kcat) came to 7.5 ± 0.9 s⁻¹, the Km amounted to 6.2 ± 2.7 µM, the catalytic efficiency (kcat/Km) was 1.2e+06 ± 500000 M⁻¹ s⁻¹ and the “reduction in kcat/Km versus WT Ser1981 peptide” value is 37%. Further, at PKAc:AMP-PNP (setting [3]), the ΔG is -5.11 ± 2.2 kcal/mol and the “−TΔS” value was -8.6 ± 2.2 kcal/mol. In addition, the “reduction in affinity for PKAc versus WT Ser1981 peptide” value on PKAc:AMP-PNP (ITC, from KD of Table 3) is reported as “more than 15 fold”.

On to “SRKMAFRAKSKSCHD [Rad S300 peptide, Rad-derived peptide, residues 289–303 containing Ser300]”, for which, in data set [1], the turnover number (kcat) was 3.3 ± 1.4 s⁻¹. In addition, the “binding to PKAc detected by ITC” value on PKAc:AMP-PNP (setting [2]) is “not”.

With “RTLHDIGPEIRRAISGDL [S1718 peptide, synthetic peptide, human CaV1.2 residues 1704–1721 containing Ser1718]”, the kcat in data set [1] was 3.4 ± 1.3 s⁻¹. For the same substance, the “binding to PKAc detected by ITC” value on PKAc:AMP-PNP (setting [2]) is “could not detect any heat signals indicative of binding”.

On to “RGFLRSASLGRAASFHL [R1979A peptide, CaV1.2 S1981 peptide mutant R1979A]”, for which, in data set [1] (ADP-Glo kinase assay), the “enzymatic activity of PKAc toward the peptide” value is reported as “very low”. Also, the catalytic constant (kcat) in data set [1] stood at 1.1 ± 0.1 s⁻¹. In addition, the “binding to PKAc detected by ITC” value on PKAc:AMP-PNP (setting [2]) is on record as “no longer detect any interaction”.

As for RGFLRSASLGRRASAHL [F1982A peptide], the “reduction in kcat/Km versus WT Ser1981 peptide” value in data set [1] is on record as roughly 26%.
